Tests used:
postmenopausal women [1] = assay: Polygraphic sleep recordings in randomized, double-blind, placebo-controlled study, prevention of sleep disturbances; assay type: in vivo, human
Method: Eight postmenopausal women, aged 48-74 yr (mean 57.4 yr), were selected after a careful clinical and biological evaluation. Investigations were performed 2-17 years (mean: 8.0 years) after natural menopause (seven subjects) or bilateral ovariectomy (one subject). Mean age at menopause was 49.4 years (range: 41-57 yr). Three subjects had never received hormone replacement therapy, and five subjects had been off such treatment for 2-6 months (mean: 4.4 months) at the time of enrollment. Body weight was in the normal range for all (mean+/-SEM of body mass index 22.1+/-0.8 kg/m2). In all subjects, estradiol plasma levels were <10 ng/liter. FSH plasma levels averaged 90 IU/liter (range: 66-136 IU/liter). The protocol was designed as a randomized, double-blind, placebo-controlled study. Thereafter, all subjects participated in random order in two studies (referred to as placebo and progesterone), separated from each other by at least 1 month. The placebo study preceded the progesterone study in four subjects and followed the progesterone study in the other four volunteers. Each study included an initial 20 day ambulatory period. During this period, the subjects were asked to maintain regular sleep-wake cycles (bedtime 2300-0700 h in darkness) and meal schedules (0800 h, 1230 h, 1900 h). They took daily, at 2300 h, a capsule of either 300 mg of progesterone or placebo. At the end of the ambulatory period, they were admitted at about 1600 h to the sleep laboratory for 44 hours. During hospitalization, subjects were maintained in a seated/upright position in normal indoor light conditions (+/-300 lux), and no naps were allowed during the scheduled wake periods (0700-2300 h). Meals were served at 0800 h, 1230 h, and 1900 h. At 2300 h, they received their usual capsule of either 300 mg of progesterone or placebo. During both scheduled sleep periods (2300-0700 h), subjects were kept recumbent in total darkness and sleep was polygraphically recorded. On the morning after the first night, a sterile heparin-lock catheter was inserted intravenously in the forearm and blood samples were collected for 24 hours at 15-minute intervals. The iv line was kept permeable by a slow drip of heparinized saline. During the sleep period, the indwelling catheter was connected to plastic tubing extending to an adjacent room and blood samples were collected remotely, as previously described (Leproult et al., 2005, Clin. Endocrinol. 63: 298-304). The total amount of blood withdrawn was less than 300 ml for each inpatient study. The subjects were discharged at about 1200 h after the second night. Polygraphic sleep recordings were visually scored at 30 second intervals, using standardized criteria ([…] and Kales, 1968, Los Angeles: UCLA Brain Information Service/Brain Research Institute) by the same experienced scorer who was blind to the clinical condition of the subject. Sleep onset and morning awakening were defined as, respectively, the times of the first and last 30 second intervals scored II, III, IV, or rapid eye movement (REM). The sleep period was defined as the time interval separating sleep onset and final awakening. Total sleep time was defined as the sleep period minus the total duration of wake after sleep onset (WASO). Sleep latency was defined as the time interval from lights off until sleep onset. Sleep efficiency was calculated as the total sleep time, expressed as percentage of the time allocated to sleep. Slow-wave sleep (SWS) was defined as stages III+IV. A spectral analysis was performed on the central electroencephalogram lead (PRANA, PhiTools, Strasbourg, France) (Latta et al., 2005, Sleep 28: 1525-1534). Muscular, ocular, and movement artifacts were eliminated before spectral analysis. Delta activity was calculated as the absolute spectral power in the frequency band 0.5-4 Hz. Mean delta power was calculated per 30-sec epoch. Delta power in non-REM sleep quantifies slow-wave activity (SWA) (i.e., the intensity of SWS). […]

post-menopausal women = post-menopausal women administered 300 mg progesterone; cited from earlier work
men = men orally administered 300 mg progesterone; cited from earlier work
postmenopausal women [2] = assay: Hormone levels (GH, IGF-I, TSH, free T4) from 24 hour blood sampling in the placebo-controlled study; assay type: in vivo, human
Method: Each study included an initial 20 day ambulatory period. During this period, the subjects were asked to maintain regular sleep-wake cycles (bedtime 2300-0700 h in darkness) and meal schedules (0800 h, 1230 h, 1900 h). They took daily, at 2300 h, a capsule of either 300 mg of progesterone or placebo.
At the end of the ambulatory period, they were admitted at about 1600 h to the sleep laboratory for 44 hours. During hospitalization, subjects were maintained in a seated/upright position in normal indoor light conditions (+/−300 lux), and no naps were allowed during the scheduled wake periods (0700-2300 h). Meals were served at 0800 h, 1230 h, and 1900 h. At 2300 h, they received their usual capsule of either 300 mg of progesterone or placebo. During both scheduled sleep periods (2300-0700 h), subjects were kept recumbent in total darkness and sleep was polygraphically recorded.
On the morning after the first night, a sterile heparin-lock catheter was inserted intravenously in the forearm and blood samples were collected for 24 hours at 15-minute intervals. The iv line was kept permeable by a slow drip of heparinized saline. During the sleep period, the indwelling catheter was connected to plastic tubing extending to an adjacent room and blood samples were collected remotely, as previously described (Leproult et al., 2005, Clin. Endocrinol. 63: 298-304). The total amount of blood withdrawn was less than 300 ml for each inpatient study. The subjects were discharged at about 1200 h after the second night.
Nonparametric tests (Friedman test, Wilcoxon signed rank test, Spearman rank test) were used for statistical calculations (StatView SE+ software for Macintosh computers, Abacus Concepts Inc., Berkeley, Calif.). Detection of outliers was performed by the Grubbs test (Grubbs, 1969, Technometrics 11:1-21; Grubbs and Beck, 1972, Technometrics 14:847-854). All group values are expressed as the mean+/−SEM.
Levels of growth hormone (GH) and thyroid-stimulating hormone (TSH) also were assessed.

[3] = night 2 (with catheter), P=0.04

SMILES: CC(=O)[C@H]1CC[C@H]2[C@@H]3CCC4=CC(=O)CC[C@]4(C)[C@H]3CC[C@]12C [progesterone, pregn-4-ene-3,20-dione]
- sleep duration and architecture, placebo versus progesterone treatment (postmenopausal women [1]; night 1 (without catheter), 300 mg daily at 2300 h, after 20 day ambulatory period): no differences
- sleep latency, stage I, stage II, REM sleep, and REM latency, progesterone versus placebo (postmenopausal women [1]; night 2 (with catheter)): no differences
- sleep efficiency higher under progesterone compared with placebo (postmenopausal women [1]; [3]): 15%
- total SWA higher under progesterone compared with placebo (postmenopausal women [1]; [3]): more than 40%
- total sleep time higher under progesterone compared with placebo (postmenopausal women [1]; [3]): 20%
- mean WASO duration lower under progesterone compared with placebo (postmenopausal women [1]; night 2 (with catheter), P=0.05): more than 50%
- SWS duration (postmenopausal women [1]; night 2 (with catheter), all eight subjects, mean+/-SEM): 84 ± 10 min
- SWS duration, outlier excluded (postmenopausal women [1]; night 2 (with catheter), outlier excluded from the analysis, mean+/-SEM, P=0.04 vs placebo): 79 ± 10 min
- other sleep variables, night 2 compared with night 1 (postmenopausal women [1]; under progesterone 300 mg daily, night 2 with iv catheter): not significantly altered
- decrease in stage II, night 2 compared with night 1 (postmenopausal women [1]; under progesterone 300 mg daily, night 2 with iv catheter, P=0.04): about 20%
- decrease in total sleep time, night 2 compared with night 1 (postmenopausal women [1]; under progesterone 300 mg daily, night 2 with iv catheter, P=0.05): about 20%
- decrease in sleep efficiency, night 2 compared with night 1 (postmenopausal women [1]; under progesterone 300 mg daily, night 2 with iv catheter, P=0.07): about 20%
- intermittent time spent awake and REM sleep in the first third of the night (post-menopausal women): decrease of intermittent time spent awake and increase in REM sleep in the first third of the night
- total duration of REM, Stage 2 or SWS, absolute power spectra; baseline, placebo and progesterone (post-menopausal women): no significant differences
- effect on sleep pattern (men): increase of stage N2 time and decrease of stage N3 time and of REM sleep
- GH secretion over the scheduled wake period (postmenopausal women [2]; 0700-2300 h, mean+/-SEM, similar under both conditions): 239 ± 91 µg
- slope of the linear regression of TSH values over the 2300-0100 period (postmenopausal women [2]; 2300-0100 period, P=0.05): significant negative slope
- TSH levels over the 2300-0700 period (postmenopausal women [2]; 2300-0700 period, P=0.05 vs placebo): 0.98+/−0.18 mU/l
- GH secretion over the scheduled sleep period (postmenopausal women [2]; 2300-0700 h, mean+/-SEM, P=0.05 vs placebo): 154 ± 44 µg
- 24 hour TSH levels (postmenopausal women [2]; 24 hour, P=0.07 vs placebo): 0.91+/−0.13 mU/l
- 24 hour free T4 levels (postmenopausal women [2]; 24 hour, P=0.53 vs placebo): 10.3 ± 0.4 ng/L
- IGF-I levels (postmenopausal women [2]; measured on 2-3 morning plasma samples, P=0.09 vs placebo): 103 ± 23 µg/L

— patent US9504697B2, “Progesterone treatment for improving sleep quality” (BESINS Healthcare Luxembourg SARL, priority 2011, dated 2016)
